Read-outs that look alike come from different tables or passages of the source.
Assays:
ATX enzyme = ATX enzyme (Homo sapiens (Human), UniProt Q13822); assay: ATX enzyme activity inhibition assay; type: biochemical; conditions: 16:0-LPC substrate, Amplex UltraRed fluorescence
Procedure: The tested compounds were dissolved with dimethyl sulfoxide (DMSO) to prepare 20 mM of stock solutions, the stock solutions were subjected to 4-fold gradient dilutions with DMSO, with the initial concentration of 20 µM and a total of 8 concentration gradients. 20 nL of diluted compound was transferred to a 384-well plate using Echo 550 and 5 µL of ATX enzyme solution formulated with 4 × Tris-HCl reaction buffer to the well, then the 384-well plate was centrifuged at 1000 rpm for 1 min and […] pre-incubated at room temperature for 15 min. Subsequently, 5 µL of 16:0-LPC foumulated with the above 4 × reaction buffer and 10 µL of assay solution containng 2 × Amplex UltraRed reagent, choline oxidase and horseradish peroxidase (HRP) foumulated with the same reaction buffer were added to each well, then the 384-well plate was centrifugated at 1000 rpm for 1 min. The fluorescence signals were read at an excitation wavelength of 530 nm and an emission wavelength of 590 nm by Synergy 2 microplate reader. The inhibition rate of the compound against enzyme reaction was calculated according to the fluorescence intensity ratio, and IC50 of the compound was analysed and calculated by GraphPad Prism 5 software.

[1] = test system: Chinese hamster ovary cells (CHO-WBL); assay: In vitro micronucleus assay with Chinese hamster ovary cells
Procedure: In the major micronucleus assay, CHO-WBL cells were exposed to at least 3 concentrations of the test object, while vehicle control group and positive control group were set up, with 2 replicated wells for each dose group. In inactivated test system, the administration lasted for 3 and 24 hours, and in S9 activated test system, the exposure to the test object lasted for 3 hours.
When choosing the highest dose for micronucleus frequency assay, the cytotoxicity of dose group of the test object should not substantially exceed 50% of that of the corresponding vehicle control group.
On the premise that the test is valid, the test results are evaluated according to the following criteria:
If the test object simutaneously meets the following criteria, it can be considered as positive:
A significant increase in micronucleus frequency is observed in one or more concentration groups.
If none of the above three points is met, the test object can be considered as negative.

[2] = Rat pharmacokinetic study; type: in vivo, SD rat; conditions: for half-life: read-out: t½ (converted)
Procedure: SD rat pharmacokinetic study was performed on several compounds in Examples of the present disclosure through a single intravenous injection (IV, at a dose of 2 mg/kg) and a single oral administration (PO, at a dose of 10 mg/kg), and blood samples were taken before administration and 5 min, 15 min, 30 min, 1 h, 2 h, 4 h, 8 h, 12 h and 24 h after administration, respectively, to determine the plasma concentration of the compound for assay. The pharmacokinetic data of control compound and the compounds in Examples 17, 26, 28 and 29 of the present disclosure in rat plasma are shown in Tables 4-8.

[3] = 3-hour administration with metabolic activation, 5 µg/ml

In the case of `CCN(c1nc(-c2ccc(F)cc2)c(C#N)s1)c1c2nc(-c3cnc(N4CCCCS4(=O)=O)nc3)ccc2nn1CC` [Example 21, 2-((5-(2-(1,1-dioxido-1,2-thiazinan-2-yl)pyrimidin-5-yl)-2-ethyl-2H-pyrazolo[4,3-b]pyridin-3-yl)(ethyl)amino)-4-(4-fluorophenyl)thiazole-5-carbonitrile], the IC50 (ATX enzyme) is reported as 11 nM.
`CCc1nc2ccc(-c3cnc(CC(=O)N4CC(CO)C4)cn3)cn2c1N(C)c1nc(-c2ccc(F)cc2)c(C#N)s1` [Example 12, 2-((2-ethyl-6-(5-(2-(3-(hydroxymethyl)azetidin-1-yl)-2-oxoethyl)pyrazin-2-yl)imidazo[1,2-a]pyridin-3-yl)(methyl)amino)-4-(4-fluorophenyl)thiazole-5-carbonitrile] gave an IC50 (ATX enzyme) of 19 nM.
`CCc1nc2ccc(-c3cnc(CC(=O)N4CC[C@H](O)C4)cn3)cn2c1N(C)c1nc(-c2ccc(F)cc2)c(C#N)s1` [Example 11, (S)-2-((2-ethyl-6-(5-(2-(3-hydroxypyrrolidin-1-yl)-2-oxoethyl)pyrazin-2-yl)imidazo[1,2-a]pyridin-3-yl)(methyl)amino)-4-(4-fluorophenyl)thiazole-5-carbonitrile] gave an IC50 (ATX enzyme) of 25 nM.
In the case of `O=P1(N(CCCl)CCCl)NCCCO1` (stereo not shown) [Cyclophosphamide monohydrate], the “% binuclear cells containing micronucleus” value [1, 3] is reported as 20.8%.
With `CCc1nc2ccc(-c3cnc(C(=O)N4CC(O)C4)cn3)cn2c1N(C)c1nc(-c2ccc(F)cc2)c(C#N)s1` [Example 8, 2-((2-ethyl-6-(5-(3-hydroxyazetidin-1-carbonyl)pyrazin-2-yl)imidazo[1,2-a]pyridin-3-yl)(methyl)amino)-4-(4-fluorophenyl)thiazole-5-carbonitrile] the IC50 (ATX enzyme) was 4.4 nM.
In the case of `CCc1nc2c(C)cc(N3CCN(CC(=O)N4CC(O)C4)CC3)cn2c1N(C)c1nc(-c2ccc(F)cc2)c(C#N)s1` [GLPG1690], the Cl_F_pred ([2]; IV 2 mg/kg) is reported as 7.5 mL/min/kg, the Cl_F_pred ([2]; PO 10 mg/kg) is reported as 65.5 mL/min/kg and the F ([2]; PO 10 mg/kg vs IV 2 mg/kg) is reported as 12%. The AUC(0-inf) ([2]; SD, plasma, IV 2 mg/kg) was 4460 ng·h/mL, the AUC(0-t) ([2]; SD, plasma, IV 2 mg/kg) was 4460 ng·h/mL and the Cmax ([2]; SD, plasma, IV 2 mg/kg) was 8340 ng/mL. It also gave a half-life ([2]; SD, plasma, IV 2 mg/kg) of 1.5 h, an AUC(0-inf) ([2]; SD, plasma, PO 10 mg/kg) of 2700 ng·h/mL and an AUC(0-t) ([2]; SD, plasma, PO 10 mg/kg) of 2680 ng·h/mL. It also gave a Cmax ([2]; SD, plasma, PO 10 mg/kg) of 512 ng/mL, a Tmax ([2]; SD, plasma, PO 10 mg/kg) of 1 h and a half-life ([2]; SD, plasma, PO 10 mg/kg) of 4 h. For the same compound, the “% binuclear cells containing micronucleus” value ([1]; 3-hour administration with metabolic activation, 2 µg/ml) was 1.55%, the “% binuclear cells containing micronucleus” value [1, 3] was 1.65% and the “% binuclear cells containing micronucleus” value ([1]; 3-hour administration with metabolic activation, 10 µg/ml) was 1.70%. For the same compound, the “% binuclear cells containing micronucleus” value ([1]; 3-hour administration with metabolic activation, 30 µg/ml) was 1.85%, the “% binuclear cells containing micronucleus” value ([1]; 3-hour administration without metabolic activation, 2 µg/ml) was 1.90% and the “% binuclear cells containing micronucleus” value ([1]; 3-hour administration without metabolic activation, 5 µg/ml) was 1.85%. The “% binuclear cells containing micronucleus” value ([1]; 3-hour administration without metabolic activation, 10 µg/ml) was 1.65%, the “% binuclear cells containing micronucleus” value ([1]; 3-hour administration without metabolic activation, 30 µg/ml) was 1.85% and the “% binuclear cells containing micronucleus” value ([1]; 24-hour administration without metabolic activation, 2 µg/ml) was 1.95%. For the same compound, the “% binuclear cells containing micronucleus” value ([1]; 24-hour administration without metabolic activation, 4 µg/ml) was 1.65%, the “% binuclear cells containing micronucleus” value ([1]; 24-hour administration without metabolic activation, 6 µg/ml) was 1.60% and the “% binuclear cells containing micronucleus” value ([1]; 24-hour administration without metabolic activation, 7 µg/ml) was 4.85%. For the same compound, the “% binuclear cells containing micronucleus” value ([1]; 24-hour administration without metabolic activation, 8 µg/ml) was 14.4% and the “potential to induce micronucleus formation in CHO-WBL cells” value ([1]; overall verdict over all administration series) was “positive”.
In the case of `CCc1nc2ccc(-c3cnc(C(=O)NC4CC5(CNC5)C4)cn3)cn2c1N(C)c1nc(-c2ccc(F)cc2)c(C#N)s1` [Example 15, 5-(3-((5-cyano-4-(4-fluorophenyl)thiazol-2-yl)(methyl)amino)-2-ethylimidazo[1,2-a]pyridin-6-yl)-N-(2-azaspiro[3.3]heptan-6-yl)pyrazin-2-carboxamide], the IC50 (ATX enzyme) is reported as 40 nM.
Compound `CCN(c1nc(-c2ccc(F)cc2)c(C#N)s1)c1c2nc(-c3cnc(N4CC(CO)C4)nc3)ccc2nn1CC` [Example 24, 2-(ethyl(2-ethyl-5-(2-(3-(hydroxymethyl)azetidin-1-yl)pyrimidin-5-yl)-2H-pyrazolo[4,3-b]pyridin-3-yl)amino)-4-(4-fluorophenyl)thiazole-5-carbonitrile] has an IC50 (ATX enzyme) of 11 nM.
`CCc1nc2ccc(-c3cnc(N(C)S(C)(=O)=O)nc3)cn2c1N(CC)c1nc(-c2ccc(F)cc2)c(C#N)s1` [Example 20, N-(5-(3-((5-cyano-4-(4-fluorophenyl)thiazol-2-yl)(ethyl)amino)-2-ethylimidazo[1,2-a]pyridin-6-yl)pyrimidin-2-yl)-N-methylmethanesulfonamide] gave an IC50 (ATX enzyme) of 45 nM.
`CCc1nc2ccc(-c3ccc(CC(=O)N4CC(O)C4)nc3)cn2c1N(C)c1nc(-c2ccc(F)cc2)c(C#N)s1` [Example 2, 2-((2-ethyl-6-(6-(2-(3-hydroxyazetidin-1-yl)-2-oxoethyl)pyridin-3-yl)imidazo[1,2-a]pyridin-3-yl)(methyl)amino)-4-(4-fluorophenyl)thiazole-5-carbonitrile] showed an IC50 (ATX enzyme) of 29 nM.
With `CCc1nc2ccc(-c3cnc(N4CCCS4(=O)=O)cn3)cn2c1N(CC)c1nc(-c2ccc(F)cc2)c(C#N)s1` [Example 19, 2-((6-(5-(1,1-dioxidoisothiazolidin-2-yl)pyrazin-2-yl)-2-ethylimidazo[1,2-a]pyridin-3-yl)(ethyl)amino)-4-(4-fluorophenyl)thiazole-5-carbonitrile] the IC50 (ATX enzyme) was 17 nM.
`CCc1nc2ccc(-c3cnc(CC(=O)N4CC(O)C4)c(F)c3)cn2c1N(C)c1nc(-c2ccc(F)cc2)c(C#N)s1` [Example 3, 2-((2-ethyl-6-(5-fluoro-6-(2-(3-hydroxyazetidin-1-yl)-2-oxoethyl)pyridin-3-yl)imidazo[1,2-a]pyridin-3-yl)(methyl)amino)-4-(4-fluorophenyl)thiazole-5-carbonitrile] gave an IC50 (ATX enzyme) of 5.2 nM.
For `CCc1nc2ccc(-c3cnc(C(C)(C)C(=O)N4CC(O)C4)cn3)cn2c1N(C)c1nc(-c2ccc(F)cc2)c(C#N)s1` [Example 9, 2-((2-ethyl-6-(5-(1-(3-hydroxyazetidin-1-yl)-2-methyl-1-oxopropan-2-yl)pyrazin-2-yl)imidazo[1,2-a]pyridin-3-yl)(methyl)amino)-4-(4-fluorophenyl)thiazole-5-carbonitrile], the IC50 (ATX enzyme) was 28 nM.
For `CCc1nc2ccc(-c3cnc(CC(=O)N4CC[C@@H](O)C4)cn3)cn2c1N(C)c1nc(-c2ccc(F)cc2)c(C#N)s1` [Example 13, (R)-2-((2-ethyl-6-(5-(2-(3-hydroxypyrrolidin-1-yl)-2-oxoethyl)pyrazin-2-yl)imidazo[1,2-a]pyridin-3-yl)(methyl)amino)-4-(4-fluorophenyl)thiazole-5-carbonitrile], the IC50 (ATX enzyme) was 13 nM.
Work on `CCc1nn2ccc(-c3cnc(N4CCCS4(=O)=O)nc3)nc2c1N(CC)c1nc(-c2ccc(F)cc2)c(C#N)s1` [Example 18, 2-((5-(2-(1,1-dioxidoisothiazolidin-2-yl)pyrimidin-5-yl)-2-ethyl-pyrazolo[1,5-a]pyrimidin-3-yl)(ethyl)amino)-4-(4-fluorophenyl)thiazole-5-carbonitrile] yielded an IC50 (ATX enzyme) of 15 nM.
With `CCc1nc2ccc(-c3ccc(CC(=O)N4CC(O)C4)cn3)cn2c1N(C)c1nc(-c2ccc(F)cc2)c(C#N)s1` [Example 7, 2-((2-ethyl-6-(5-(2-(3-hydroxyazetidin-1-yl)-2-oxoethyl)pyridin-2-yl)imidazo[1,2-a]pyridin-3-yl)(methyl)amino)-4-(4-fluorophenyl)thiazole-5-carbonitrile] the IC50 (ATX enzyme) was 25 nM.
`CCc1nc2ccc(-c3ccc(CC(=O)N4CC(O)C4)nn3)cn2c1N(C)c1nc(-c2ccc(F)cc2)c(C#N)s1` [Example 5, 2-((2-ethyl-6-(6-(2-(3-hydroxyazetidin-1-yl)-2-oxoethyl)pyridazin-3-yl)imidazo[1,2-a]pyridin-3-yl)(methyl)amino)-4-(4-fluorophenyl)thiazole-5-carbonitrile] showed an IC50 (ATX enzyme) of 48 nM.
Compound `CCc1nc2ccc(-c3ccc(CC(=O)N4CC(O)C4)cc3)cn2c1N(C)c1nc(-c2ccc(F)cc2)c(C#N)s1` [Example 1, 2-((2-ethyl-6-(4-(2-(3-hydroxyazetidin-1-yl)-2-oxoethyl)phenyl)imidazo[1,2-a]pyridin-3-yl)(methyl)amino)-4-(4-fluorophenyl)thiazole-5-carbonitrile] has an IC50 (ATX enzyme) of 30 nM.
